Literature values in US20060257483A1, “Controlled release bupropion dosage forms” (ABRIKA Pharmaceuticals, priority 2005, published 2006).
Structures can show the parent of a compound that is named as a salt.

Conditions: powder

- solubility in water: highly soluble in water
Structure (SMILES): CC(NC(C)(C)C)C(=O)c1cccc(Cl)c1 (stereo not shown) [bupropion hydrochloride]
